“And” between values parts separate entries of the source, which are not always exact repeats. Equal entries are not always repeated.
Tests used:
Type in all cases: in vivo, mouse
OVCAR3 xenografts = experiment: Cell line-derived xenograft, tumour growth; conditions: Gem 20mg/kg QWx4 IP
Experimental: (§1) HCC1569, OVCAR3 and SUM149PT cells were implanted at 5 × 10^6 cells per mouse into the right flanks of female CB17-SCID, SCID-beige and NOD-SCID mice respectively (5–7 weeks old; Charles River), in 1:1 Matrigel:medium (Matrigel Corning, cat. no. CB35248).
(§2) Gemcitabine was administered once weekly intraperitoneally in saline. Animals were monitored for tumour volume, clinical signs and body weight three times per week. Tumour volume was measured using a digital calliper and calculated using the formula 0.52 × L × W^2, where L is length and W is width. Response to treatment was evaluated for tumour growth inhibition (% TGI). […] TV is tumour volume and subscripts indicate treatment group and time of sampling. According to NIACC and IACUC approved animal protocols, mice were euthanized as soon as their tumour volume exceeded 2,000 mm^3. Change in body weight (BW) was calculated using the formula: %BW change = (BWlast − BWday0/BWday0) × 100. BW change was calculated based on individual body weight changes relative to day 0. Statistical significance relative to vehicle control or other test groups was established by one-way ANOVA followed by Fisher’s least significant difference test for multiple groups and unpaired t-test for two group comparisons (GraphPad Prism v9.0). Investigators were not blinded during data collection and analysis.

HCC1569 xenografts = experiment: Cell line-derived xenograft, tumour growth; conditions: Gem 20mg/kg QWx4 IP
Experimental: as §1, §2

[1] = Body weight change of tumour-bearing mice; conditions: Gem 20mg/kg QWx4 IP, individual mice
Experimental: as §2

Nc1ccn([C@@H]2O[C@H](CO)[C@@H](O)C2(F)F)c(=O)n1 [Gem]
Tumor growth of OVCAR3 xenografts (OVCAR3 xenografts; time 0, individual animals): 127.251 and 90.8608 and 112.694 and 96.336 and 125.032 and 141.631 and 118.987 | Tumor growth of OVCAR3 xenografts (OVCAR3 xenografts; time 3, individual animals): 203.437 and 160.884 and 245.447 and 183.946 and 210.941 and 179.854 and 163.096 | Tumor growth of OVCAR3 xenografts (OVCAR3 xenografts; time 7, individual animals): 169.802 and 183.034 and 268.576 and 188.758 and 168.18 and 112.682 and 213.401 | Tumor growth of OVCAR3 xenografts (OVCAR3 xenografts; time 9, individual animals): 250.578 and 145.319 and 296.396 and 174.266 and 208.875 and 111.675 and 222.442 | Tumor growth of OVCAR3 xenografts (OVCAR3 xenografts; time 11, individual animals): 150.312 and 146.391 and 223.166 and 200.774 and 206.854 and 146.012 and 157.334 | Tumor growth of OVCAR3 xenografts (OVCAR3 xenografts; time 14, individual animals): 213.268 and 123.935 and 200.751 and 155.809 and 196.515 and 140.875 and 141.404 | Tumor growth of OVCAR3 xenografts (OVCAR3 xenografts; time 16, individual animals): 237.66 and 135.959 and 229.1 and 226.618 and 235.663 and 103.266 and 203.735 | Tumor growth of OVCAR3 xenografts (OVCAR3 xenografts; time 18, individual animals): 251.017 and 162.673 and 318.873 and 214.059 and 306.209 and 174.974 and 210.077 | Tumor growth of OVCAR3 xenografts (OVCAR3 xenografts; time 21, individual animals): 247.655 and 170.92 and 321.104 and 222.893 and 230.514 and 99.1867 and 166.154 | Tumor growth of OVCAR3 xenografts (OVCAR3 xenografts; time 23, individual animals): 217.609 and 142.992 and 287.288 and 218.481 and 211.021 and 149.048 and 110.272 | Tumor growth of OVCAR3 xenografts (OVCAR3 xenografts; time 25, individual animals): 172.222 and 104.59 and 228.551 and 206.723 and 216.753 and 107.406 and 123.877 | Tumor growth of OVCAR3 xenografts (OVCAR3 xenografts; time 28, individual animals): 184.75 and 98.3676 and 117.318 and 112.167 and 170.273 and 123.013 and 138.241 | Tumor growth of OVCAR3 xenografts (OVCAR3 xenografts; time 31, individual animals): 217.819 and 125.965 and 185.385 and 170.168 and 195 and 193.032 and 178.082 | Tumor growth of OVCAR3 xenografts (OVCAR3 xenografts; time 35, individual animals): 357.498 and 160.976 and 228.46 and 273.584 and 249.247 and 117.028 and 138.719 | Tumor growth of HCC1569 xenografts (HCC1569 xenografts; time 0, individual animals): 105.749 and 117.204 and 102.711 and 148.478 and 128.24 and 85.4122 and 124.681 | HCC1569 tumor volume (mm3) (HCC1569 xenografts; time 0, individual mice): 105.749 mm3 and 117.204 mm3 and 102.711 mm3 and 148.478 mm3 and 128.24 mm3 and 85.4122 mm3 and 124.681 mm3 | Tumor growth of HCC1569 xenografts (HCC1569 xenografts; time 3, individual animals): 151.536 and 159.659 and 162.777 and 151.443 and 177.63 and 154.669 and 192.079 | HCC1569 tumor volume (mm3) (HCC1569 xenografts; time 3, individual mice): 151.536 mm3 and 159.659 mm3 and 162.777 mm3 and 151.443 mm3 and 177.63 mm3 and 154.669 mm3 and 192.079 mm3 | Tumor growth of HCC1569 xenografts (HCC1569 xenografts; time 7, individual animals): 138.854 and 145.293 and 143.642 and 108.998 and 199.13 and 137.034 and 160.487 | HCC1569 tumor volume (mm3) (HCC1569 xenografts; time 7, individual mice): 138.854 mm3 and 145.293 mm3 and 143.642 mm3 and 108.998 mm3 and 199.13 mm3 and 137.034 mm3 and 160.487 mm3 | Tumor growth of HCC1569 xenografts (HCC1569 xenografts; time 9, individual animals): 174.796 and 137.503 and 143.242 and 176.878 and 226.134 and 163.467 and 188.183 | HCC1569 tumor volume (mm3) (HCC1569 xenografts; time 9, individual mice): 174.796 mm3 and 137.503 mm3 and 143.242 mm3 and 176.878 mm3 and 226.134 mm3 and 163.467 mm3 and 188.183 mm3 | Tumor growth of HCC1569 xenografts (HCC1569 xenografts; time 11, individual animals): 223.015 and 184.936 and 195 and 179.883 and 241.724 and 153.608 and 171.36 | HCC1569 tumor volume (mm3) (HCC1569 xenografts; time 11, individual mice): 223.015 mm3 and 184.936 mm3 and 195 mm3 and 179.883 mm3 and 241.724 mm3 and 153.608 mm3 and 171.36 mm3 | Tumor growth of HCC1569 xenografts (HCC1569 xenografts; time 14, individual animals): 204.003 and 261.558 and 183.38 and 118.879 and 239.252 and 185.171 and 204.752 | HCC1569 tumor volume (mm3) (HCC1569 xenografts; time 14, individual mice): 204.003 mm3 and 261.558 mm3 and 183.38 mm3 and 118.879 mm3 and 239.252 mm3 and 185.171 mm3 and 204.752 mm3 | Tumor growth of HCC1569 xenografts (HCC1569 xenografts; time 16, individual animals): 195.461 and 216.259 and 164.879 and 153.977 and 196.654 and 193.17 and 190.906 | HCC1569 tumor volume (mm3) (HCC1569 xenografts; time 16, individual mice): 195.461 mm3 and 216.259 mm3 and 164.879 mm3 and 153.977 mm3 and 196.654 mm3 and 193.17 mm3 and 190.906 mm3 | Tumor growth of HCC1569 xenografts (HCC1569 xenografts; time 18, individual animals): 221.924 and 212.425 and 129.02 and 208.213 and 166.677 and 229.196 and 227.014 | HCC1569 tumor volume (mm3) (HCC1569 xenografts; time 18, individual mice): 221.924 mm3 and 212.425 mm3 and 129.02 mm3 and 208.213 mm3 and 166.677 mm3 and 229.196 mm3 and 227.014 mm3 | Tumor growth of HCC1569 xenografts (HCC1569 xenografts; time 21, individual animals): 185.067 and 156.685 and 149.724 and 161.993 and 145.441 and 216.395 and 247.024 | HCC1569 tumor volume (mm3) (HCC1569 xenografts; time 21, individual mice): 185.067 mm3 and 156.685 mm3 and 149.724 mm3 and 161.993 mm3 and 145.441 mm3 and 216.395 mm3 and 247.024 mm3 | Tumor growth of HCC1569 xenografts (HCC1569 xenografts; time 23, individual animals): 177.467 and 131.768 and 165.163 and 189.467 and 130.853 and 205.401 and 303.013 | HCC1569 tumor volume (mm3) (HCC1569 xenografts; time 23, individual mice): 177.467 mm3 and 131.768 mm3 and 165.163 mm3 and 189.467 mm3 and 130.853 mm3 and 205.401 mm3 and 303.013 mm3 | Change in body weight (%) HCC1569 ([1]; time 0): 0% | Change in body weight (%) HCC1569 ([1]; time 3): 2.186% and 4.278% and -2.094% and 2.073% and 1.538% and -0.9709% and -1.493% | Change in body weight (%) HCC1569 ([1]; time 7): 3.279% and 3.743% and 1.047% and 5.181% and 1.026% and 0% and 1.99% | Change in body weight (%) HCC1569 ([1]; time 9): 0.5464% and 3.209% and 0.5236% and 3.109% and 2.5641% and 2.427% and 1.99% | Change in body weight (%) HCC1569 ([1]; time 11): 3.279% and 2.6738% and 1.571% and 2.591% and 0.5128% and 1.456% and 3.483% | Change in body weight (%) HCC1569 ([1]; time 14): 7.104% and 10.1604% and 2.6178% and 8.808% and 4.103% and 2.913% and 2.985% | Change in body weight (%) HCC1569 ([1]; time 16): 9.29% and 6.417% and 2.6178% and 5.181% and 3.077% and 4.854% and 4.975% | Change in body weight (%) HCC1569 ([1]; time 18): 8.197% and 8.556% and 3.141% and 6.218% and 3.59% and 6.796% and 0.995% | Change in body weight (%) HCC1569 ([1]; time 21): 12.5683% and 10.6952% and 5.759% and 9.326% and 8.205% and 11.6505% and 10.4478% | Change in body weight (%) HCC1569 ([1]; time 23): 13.1148% and 9.626% and 4.712% and 9.845% and 6.154% and 6.311% and 3.9801% | Change in body weight (%) OVCAR3 ([1]; day 0): 0% | Change in body weight (%) OVCAR3 ([1]; day 3): 1.389% and -3.111% and 1.796% and -4.018% and -0.4608% and -5.195% and 2.427% | Change in body weight (%) OVCAR3 ([1]; day 7): 4.63% and 0.4444% and 0.5988% and -2.232% and -0.9217% and 0% and 3.8835% | Change in body weight (%) OVCAR3 ([1]; day 9): 4.167% and -2.667% and 0% and -0.8929% and -3.226% and -2.1645% and 3.8835% | Change in body weight (%) OVCAR3 ([1]; day 11): 0% (2×) and -3.556% and 1.796% and -1.786% and -3.687% and 7.767% | Change in body weight (%) OVCAR3 ([1]; day 14): 2.778% and -1.333% and 0.5988% and -0.8929% and 0% and 0.8658% and 9.709% | Change in body weight (%) OVCAR3 ([1]; day 16): 3.7037% and -2.667% and -0.5988% and -1.786% and -4.147% and 0.4329% and 7.282% | Change in body weight (%) OVCAR3 ([1]; day 18): 4.63% and -2.222% and 0.5988% and -0.4464% and 1.843% and -1.7316% and 4.854% | Change in body weight (%) OVCAR3 ([1]; day 21): 8.7963% and 1.778% and 1.796% and -0.4464% and 2.765% and 0% and 8.252%

Source: paper PMC9046089, “CCNE1 amplification is synthetic lethal with PKMYT1 kinase inhibition” (Nature, 2022)
